In US20140107100A1, “Benzoxazepines as Inhibitors of PI3K/mTOR and Methods of Their Use and Manufacture” (EXELIXIS, INC., priority 2010, published 2014):
Each block holds one molecule with its values, some of them ahead of it.

Target: mTOR/GbL/Raptor (mTORC1) (Homo sapiens, UniProt P42345)
Test: mTOR/GbL/Raptor (mTORC1) ELISA assay, phosphorylation of 4E-BP1
Assay type: biochemical
Conditions: 0.2 nM mTORC1, 40 uM ATP, 50 nM NHis-tagged 4E-BP1, 120 minutes; read-out: IC50 in this assay (mTORC1 ELISA)
Summary of the method: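 Phospho-4E-BP1 was quantified by luminescent ELISA (anti-phospho-4E-BP1 IgG, HRP-tagged secondary) after capture of the His-tagged substrate on Ni-chelate plates.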

Structure (SMILES): CCN(Cc1nc(C)c(C(C)C)c(N2CCOc3c(C)cc(-c4nnc(N)s4)cc3C2)n1)CC(F)F [Compound 170, 5-{4-[2-{[(2,2-difluoroethyl)(ethyl)amino]methyl}-6-methyl-5-(1-methylethyl)pyrimidin-4-yl]-9-methyl-2,3,4,5-tetrahydro-1,4-benzoxazepin-7-yl}-1,3,4-thiadiazol-2-amine]
- IC50: 100 to 500 nM

Structure (SMILES): Cc1cc(-c2nnc(N)s2)cc2c1OCCN(c1nc(CNCC(F)F)nc(C)c1C(C)C)C2 [Compound 169, 5-{4-[2-{[(2,2-difluoroethyl)amino]methyl}-6-methyl-5-(1-methylethyl)pyrimidin-4-yl]-9-methyl-2,3,4,5-tetrahydro-1,4-benzoxazepin-7-yl}-1,3,4-thiadiazol-2-amine]
- IC50: ≤ 100 nM

Structure (SMILES): Cc1cc(-c2cnc3nc[nH]c3c2)cc2c1OCCN(c1nc(CNCC(F)F)nc(C)c1C(C)C)C2 [Compound 165, 2,2-difluoro-N-({4-[7-(1H-imidazo[4,5-b]pyridin-6-yl)-9-methyl-2,3-dihydro-1,4-benzoxazepin-4(5H)-yl]-6-methyl-5-(1-methylethyl)pyrimidin-2-yl}methyl)ethanamine]
- IC50: ≤ 100 nM

Structure (SMILES): Cc1cc(-c2cnc3sc(N)nc3c2)cc2c1OCCN(c1nc(CN3CCCC3)nc(C)c1C(C)C)C2 [Compound 59, 6-{9-methyl-4-[6-methyl-5-(1-methylethyl)-2-(pyrrolidin-1-ylmethyl)pyrimidin-4-yl]-2,3,4,5-tetrahydro-1,4-benzoxazepin-7-yl}[1,3]thiazolo[5,4-b]pyridin-2-amine]
- IC50: ≤ 100 nM

Structure (SMILES): Cc1cc(-c2cnc3sc(N)nc3c2)cc2c1OCCN(c1nc(CNC(C)(C)C)nc(C)c1C(C)C)C2 [Compound 90, 6-{4-[2-{[(1,1-dimethylethyl)amino]methyl}-6-methyl-5-(1-methylethyl)pyrimidin-4-yl]-9-methyl-2,3,4,5-tetrahydro-1,4-benzoxazepin-7-yl}[1,3]thiazolo[5,4-b]pyridin-2-amine]
- IC50: ≤ 100 nM

Structure (SMILES): Cc1cc(-c2cnc3sc(N)nc3c2)cc2c1OCCN(c1ccc(C#N)cn1)C2 [Compound 36, 6-[7-(2-amino[1,3]thiazolo[5,4-b]pyridin-6-yl)-9-methyl-2,3-dihydro-1,4-benzoxazepin-4(5H)-yl]pyridine-3-carbonitrile]
- IC50: 100 to 500 nM

Structure (SMILES): CC#CCc1c(C)nc(C)nc1N1CCOc2c(C)cc(-c3cnc4sc(N)nc4c3)cc2C1 [Compound 141, 6-[4-(5-but-2-yn-1-yl-2,6-dimethylpyrimidin-4-yl)-9-methyl-2,3,4,5-tetrahydro-1,4-benzoxazepin-7-yl][1,3]thiazolo[5,4-b]pyridin-2-amine]
- IC50: ≤ 100 nM

Structure (SMILES): C=Cc1c(Cl)nc(N)nc1N1CCOc2c(C)cc(-c3cnc4sc(N)nc4c3)cc2C1 [Compound 40, 6-[4-(2-amino-6-chloro-5-ethenylpyrimidin-4-yl)-9-methyl-2,3,4,5-tetrahydro-1,4-benzoxazepin-7-yl][1,3]thiazolo[5,4-b]pyridin-2-amine]
- IC50: ≤ 100 nM

Structure (SMILES): CCN(CC)Cc1nc(C)c(C(C)C)c(N2CCOc3c(C)cc(-c4cnc5sc(N)nc5c4)cc3C2)n1 [Compound 65, 6-(4-{2-[(diethylamino)methyl]-6-methyl-5-(1-methylethyl)pyrimidin-4-yl}-9-methyl-2,3,4,5-tetrahydro-1,4-benzoxazepin-7-yl)[1,3]thiazolo[5,4-b]pyridin-2-amine]
- IC50: ≤ 100 nM

Structure (SMILES): Cc1cc(-c2cnc(Cl)c(NS(C)(=O)=O)c2)cc2c1OCCN(c1ncc(C#N)c(N)n1)C2 [Compound 28, N-{5-[4-(4-amino-5-cyanopyrimidin-2-yl)-9-methyl-2,3,4,5-tetrahydro-1,4-benzoxazepin-7-yl]-2-chloropyridin-3-yl}methanesulfonamide]
- IC50: ≤ 100 nM

Structure (SMILES): Cc1cc(-c2cnc3sc(N)nc3c2)cc2c1OCCN(c1nc(CC#N)nc(C)c1C(C)C)C2 [Compound 105, {4-[7-(2-amino[1,3]thiazolo[5,4-b]pyridin-6-yl)-9-methyl-2,3-dihydro-1,4-benzoxazepin-4(5H)-yl]-6-methyl-5-(1-methylethyl)pyrimidin-2-yl}acetonitrile]
- IC50: ≤ 100 nM

Structure (SMILES): Cc1cc(-c2cnc3sc(N)nc3c2)cc2c1OCCN(c1ncc(C#N)c(N)n1)C2 [Compound 26, 4-amino-2-[7-(2-amino[1,3]thiazolo[5,4-b]pyridin-6-yl)-9-methyl-2,3-dihydro-1,4-benzoxazepin-4(5H)-yl]pyrimidine-5-carbonitrile]
- IC50: 100 to 500 nM

The next lines start with the values.

- IC50: 100 to 500 nM
Structure (SMILES): Cc1cc(-c2cncnc2)cc2c1OCCN(c1nc(N)nc(C)c1C(C)C)C2 [Compound 71, 4-methyl-5-(1-methylethyl)-6-(9-methyl-7-pyrimidin-5-yl-2,3-dihydro-1,4-benzoxazepin-4(5H)-yl)pyrimidin-2-amine]

- IC50: ≤ 100 nM
Structure (SMILES): Cc1cc(-c2nnc(N)s2)cc2c1OCCN(c1nc(N)nc(C)c1C)C2 [Compound 179, 4-[7-(5-amino-1,3,4-thiadiazol-2-yl)-9-methyl-2,3-dihydro-1,4-benzoxazepin-4(5H)-yl]-5,6-dimethylpyrimidin-2-amine]

- IC50: 100 to 500 nM
Structure (SMILES): Cc1ncc(-c2cc(C)c3c(c2)CN(c2nc(N)nc(C)c2C(C)C)CCO3)s1 [Compound 118, 4-methyl-5-(1-methylethyl)-6-[9-methyl-7-(2-methyl-1,3-thiazol-5-yl)-2,3-dihydro-1,4-benzoxazepin-4(5H)-yl]pyrimidin-2-amine]

- IC50: ≤ 100 nM
Structure (SMILES): CC(=O)Nc1ncc(-c2cc(C)c3c(c2)CN(c2nc(N)nc(C)c2C(C)C)CCO3)s1 [Compound 106, N-(5-{4-[2-amino-6-methyl-5-(1-methylethyl)pyrimidin-4-yl]-9-methyl-2,3,4,5-tetrahydro-1,4-benzoxazepin-7-yl}-1,3-thiazol-2-yl)acetamide]

- IC50: ≤ 100 nM
Structure (SMILES): COc1nc(C)c(C(C)C)c(N2CCOc3c(C)cc(-c4cnc5sc(N)nc5c4)cc3C2)n1 [Compound 152, 6-{9-methyl-4-[6-methyl-5-(1-methylethyl)-2-(methyloxy)pyrimidin-4-yl]-2,3,4,5-tetrahydro-1,4-benzoxazepin-7-yl}[1,3]thiazolo[5,4-b]pyridin-2-amine]

- IC50: 100 to 500 nM
Structure (SMILES): COc1ccc(-c2cc(C)c3c(c2)CN(c2nc(N)nc(C)c2C(C)C)CCO3)cc1OC [Compound 78, 4-{7-[3,4-bis(methyloxy)phenyl]-9-methyl-2,3-dihydro-1,4-benzoxazepin-4(5H)-yl}-6-methyl-5-(1-methylethyl)pyrimidin-2-amine]

- IC50: ≤ 100 nM
Structure (SMILES): Cc1cc(-c2nnc(N)s2)cc2c1OCCN(c1nc(N)nc(C)c1C(C)C)C2 [Compound 137, 4-[7-(5-amino-1,3,4-thiadiazol-2-yl)-9-methyl-2,3-dihydro-1,4-benzoxazepin-4(5H)-yl]-6-methyl-5-(1-methylethyl)pyrimidin-2-amine]

- IC50: 100 to 500 nM
Structure (SMILES): Cc1cc(-c2cnn(C)c2)cc2c1OCCN(c1nc(N)nc(C)c1C(C)C)C2 [Compound 117, 4-methyl-5-(1-methylethyl)-6-[9-methyl-7-(1-methyl-1H-pyrazol-4-yl)-2,3-dihydro-1,4-benzoxazepin-4(5H)-yl]pyrimidin-2-amine]

- IC50: ≤ 100 nM
Structure (SMILES): CCNC(=O)c1nc(C)c(C(C)C)c(N2CCOc3c(C)cc(-c4cnc5sc(N)nc5c4)cc3C2)n1 [Compound 113, 4-[7-(2-amino[1,3]thiazolo[5,4-b]pyridin-6-yl)-9-methyl-2,3-dihydro-1,4-benzoxazepin-4(5H)-yl]-N-ethyl-6-methyl-5-(1-methylethyl)pyrimidine-2-carboxamide]

- IC50: ≤ 100 nM
Structure (SMILES): Cc1cc(-c2cnc3sc(N)nc3c2)cc2c1OCCN(c1nc(C(C)O)nc(C)c1C(C)C)C2 (centres unmarked) [Compound 98, 1-{4-[7-(2-amino[1,3]thiazolo[5,4-b]pyridin-6-yl)-9-methyl-2,3-dihydro-1,4-benzoxazepin-4(5H)-yl]-6-methyl-5-(1-methylethyl)pyrimidin-2-yl}ethanol]

- IC50: 100 to 500 nM
Structure (SMILES): CCn1cc(-c2cc(C)c3c(c2)CN(c2nc(N)nc(C)c2C(C)C)CCO3)cn1 [Compound 111, 4-[7-(1-ethyl-1H-pyrazol-4-yl)-9-methyl-2,3-dihydro-1,4-benzoxazepin-4(5H)-yl]-6-methyl-5-(1-methylethyl)pyrimidin-2-amine]

- IC50: 100 to 500 nM
Structure (SMILES): Cc1cc(-c2cccc(C(N)=O)c2)cc2c1OCCN(c1nc(N)nc(C)c1C(C)C)C2 [Compound 77, 3-{4-[2-amino-6-methyl-5-(1-methylethyl)pyrimidin-4-yl]-9-methyl-2,3,4,5-tetrahydro-1,4-benzoxazepin-7-yl}benzamide]

- IC50: ≤ 100 nM
Structure (SMILES): Cc1cc(-c2ccc(-c3ncc[nH]3)cc2)cc2c1OCCN(c1nc(N)nc(C)c1C(C)C)C2 [Compound 42, 4-{7-[4-(1H-imidazol-2-yl)phenyl]-9-methyl-2,3-dihydro-1,4-benzoxazepin-4(5H)-yl}-6-methyl-5-(1-methylethyl)pyrimidin-2-amine]

- IC50: 100 to 500 nM
Structure (SMILES): CNc1nc(-c2cc(C)c3c(c2)CN(c2nc(N)nc(C)c2C(C)C)CCO3)cs1 [Compound 112, 4-methyl-5-(1-methylethyl)-6-{9-methyl-7-[2-(methylamino)-1,3-thiazol-4-yl]-2,3-dihydro-1,4-benzoxazepin-4(5H)-yl}pyrimidin-2-amine]

- IC50: ≤ 100 nM
Structure (SMILES): Cc1cc(-c2cnc3sc(N)nc3c2)cc2c1OCCN(c1nc(C(F)F)nc(C)c1C(C)C)C2 [Compound 144, 6-{4-[2-(difluoromethyl)-6-methyl-5-(1-methylethyl)pyrimidin-4-yl]-9-methyl-2,3,4,5-tetrahydro-1,4-benzoxazepin-7-yl}[1,3]thiazolo[5,4-b]pyridin-2-amine]

- IC50: ≤ 100 nM
Structure (SMILES): COc1ncc(-c2cc(C)c3c(c2)CN(c2nc(N)nc(C)c2C(C)C)CCO3)cc1NS(C)(=O)=O [Compound 21, N-[5-{4-[2-amino-6-methyl-5-(1-methylethyl)pyrimidin-4-yl]-9-methyl-2,3,4,5-tetrahydro-1,4-benzoxazepin-7-yl}-2-(methyloxy)pyridin-3-yl]methanesulfonamide]

- IC50: 100 to 500 nM
Structure (SMILES): Cc1cc(-c2cncc(NS(C)(=O)=O)c2)cc2c1OCCN(c1nc(N)nc(C)c1C(C)C)C2 [Compound 18, N-(5-{4-[2-amino-6-methyl-5-(1-methylethyl)pyrimidin-4-yl]-9-methyl-2,3,4,5-tetrahydro-1,4-benzoxazepin-7-yl}pyridin-3-yl)methanesulfonamide]
